Experimental data as given in publication PMC4076210, “Discovery of Novel AKT Inhibitors with Enhanced Anti-Tumor Effects in Combination with the MEK Inhibitor” (PLoS ONE, 2014).
Read-outs that look alike come from different tables or passages of the source.

Experiments:
Type in all cases: biochemical
GCK(h) = target: T1, GCK(h) (Homo sapiens, UniProt Q12851); test: Kinase panel
T1 construct: purchased Millipore KinaseProfiler
T1 sequence (Q12851 1-820): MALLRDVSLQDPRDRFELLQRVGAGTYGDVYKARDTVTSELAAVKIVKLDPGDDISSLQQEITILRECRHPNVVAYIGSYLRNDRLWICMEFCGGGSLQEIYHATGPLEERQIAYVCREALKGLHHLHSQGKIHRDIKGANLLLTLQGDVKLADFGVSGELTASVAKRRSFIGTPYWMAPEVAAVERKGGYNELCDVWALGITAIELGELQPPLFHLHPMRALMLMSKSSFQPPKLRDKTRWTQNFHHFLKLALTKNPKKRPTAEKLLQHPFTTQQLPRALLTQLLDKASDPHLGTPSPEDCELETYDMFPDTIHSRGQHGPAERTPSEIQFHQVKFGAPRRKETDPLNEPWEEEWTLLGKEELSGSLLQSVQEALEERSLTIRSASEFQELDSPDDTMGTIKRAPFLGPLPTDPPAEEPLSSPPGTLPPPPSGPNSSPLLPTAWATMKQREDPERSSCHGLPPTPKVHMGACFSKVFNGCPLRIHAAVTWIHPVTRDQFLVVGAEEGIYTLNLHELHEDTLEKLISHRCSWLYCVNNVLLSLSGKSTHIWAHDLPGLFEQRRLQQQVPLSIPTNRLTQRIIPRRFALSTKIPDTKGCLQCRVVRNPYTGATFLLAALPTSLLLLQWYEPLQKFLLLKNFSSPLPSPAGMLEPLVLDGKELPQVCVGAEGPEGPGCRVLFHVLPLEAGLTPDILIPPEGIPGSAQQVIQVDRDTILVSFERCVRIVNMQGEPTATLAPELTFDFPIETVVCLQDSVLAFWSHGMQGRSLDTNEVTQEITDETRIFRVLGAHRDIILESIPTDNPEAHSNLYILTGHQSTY

ROCK-I(h) = target: T2, ROCK-I(h) (Homo sapiens, UniProt Q13464); test: Kinase panel
T2 construct: purchased Millipore KinaseProfiler

PKCζ = PKCζ (Homo sapiens, UniProt Q05513); test: Kinase IC50 assay
ASK1(h) = target: T3, ASK1(h) (Homo sapiens, UniProt Q99683); test: Kinase panel
T3 construct: purchased Millipore KinaseProfiler
T3 sequence (Q99683 1-1374): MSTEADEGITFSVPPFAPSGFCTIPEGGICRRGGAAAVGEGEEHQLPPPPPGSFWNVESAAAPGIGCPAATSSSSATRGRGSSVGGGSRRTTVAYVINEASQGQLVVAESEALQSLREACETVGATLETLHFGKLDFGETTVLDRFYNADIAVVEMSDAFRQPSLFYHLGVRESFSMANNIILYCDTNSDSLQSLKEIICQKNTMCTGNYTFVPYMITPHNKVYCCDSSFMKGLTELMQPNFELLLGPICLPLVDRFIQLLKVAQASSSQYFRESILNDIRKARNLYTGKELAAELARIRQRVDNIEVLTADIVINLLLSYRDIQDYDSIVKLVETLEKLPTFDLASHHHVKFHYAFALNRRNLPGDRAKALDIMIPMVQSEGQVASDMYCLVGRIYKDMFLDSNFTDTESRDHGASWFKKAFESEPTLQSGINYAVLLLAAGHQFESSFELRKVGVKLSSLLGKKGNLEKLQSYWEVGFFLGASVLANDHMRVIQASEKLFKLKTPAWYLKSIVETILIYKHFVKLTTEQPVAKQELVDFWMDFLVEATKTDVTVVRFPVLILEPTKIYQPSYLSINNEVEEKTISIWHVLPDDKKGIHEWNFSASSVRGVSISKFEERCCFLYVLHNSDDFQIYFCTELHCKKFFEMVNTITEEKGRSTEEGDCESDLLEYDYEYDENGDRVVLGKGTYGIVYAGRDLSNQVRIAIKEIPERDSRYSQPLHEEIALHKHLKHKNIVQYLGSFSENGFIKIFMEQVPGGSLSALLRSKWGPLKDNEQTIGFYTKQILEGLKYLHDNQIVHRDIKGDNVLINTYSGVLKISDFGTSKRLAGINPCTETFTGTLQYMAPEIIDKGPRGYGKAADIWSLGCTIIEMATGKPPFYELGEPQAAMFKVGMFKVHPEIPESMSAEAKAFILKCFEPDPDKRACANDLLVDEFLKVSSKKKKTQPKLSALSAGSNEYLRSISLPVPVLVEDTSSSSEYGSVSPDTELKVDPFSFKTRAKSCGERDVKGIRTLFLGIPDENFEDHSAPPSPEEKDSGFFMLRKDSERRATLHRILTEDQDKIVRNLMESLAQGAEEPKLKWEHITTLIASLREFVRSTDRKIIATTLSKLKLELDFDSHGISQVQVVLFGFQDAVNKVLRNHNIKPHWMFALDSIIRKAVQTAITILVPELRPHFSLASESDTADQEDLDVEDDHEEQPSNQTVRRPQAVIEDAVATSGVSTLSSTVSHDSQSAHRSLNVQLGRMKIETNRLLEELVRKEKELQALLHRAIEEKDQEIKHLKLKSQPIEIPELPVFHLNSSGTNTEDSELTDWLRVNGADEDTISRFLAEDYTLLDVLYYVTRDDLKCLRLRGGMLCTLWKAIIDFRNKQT

Flt1(h) = target: T4, Flt1(h) (Homo sapiens, UniProt P17948); test: Kinase panel
T4 construct: purchased Millipore KinaseProfiler

FGFR3(h) = target: T5, FGFR3(h) (Homo sapiens, UniProt P22607); test: Kinase panel
T5 construct: purchased Millipore KinaseProfiler

MKK6(h) = target: T6, MKK6(h) (Homo sapiens, UniProt P52564); test: Kinase panel
T6 construct: purchased Millipore KinaseProfiler
T6 sequence (P52564 1-334): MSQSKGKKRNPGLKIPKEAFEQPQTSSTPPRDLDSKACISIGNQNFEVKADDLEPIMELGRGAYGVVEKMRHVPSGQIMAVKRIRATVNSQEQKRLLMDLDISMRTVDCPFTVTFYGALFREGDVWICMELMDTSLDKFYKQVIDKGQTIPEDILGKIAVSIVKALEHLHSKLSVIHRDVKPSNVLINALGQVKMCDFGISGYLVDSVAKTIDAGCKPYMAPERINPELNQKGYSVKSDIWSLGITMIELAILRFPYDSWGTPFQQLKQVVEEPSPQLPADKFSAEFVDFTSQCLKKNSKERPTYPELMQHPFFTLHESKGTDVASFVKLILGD

PKCα(h) = target: T7, PKCα(h) (Homo sapiens, UniProt P17252); test: Kinase panel
T7 construct: purchased Millipore KinaseProfiler

Abl(h) = target: T8, Abl(h) (Homo sapiens, UniProt P00519); test: Kinase panel
T8 construct: purchased Millipore KinaseProfiler

T5 sequence (P22607 23-806): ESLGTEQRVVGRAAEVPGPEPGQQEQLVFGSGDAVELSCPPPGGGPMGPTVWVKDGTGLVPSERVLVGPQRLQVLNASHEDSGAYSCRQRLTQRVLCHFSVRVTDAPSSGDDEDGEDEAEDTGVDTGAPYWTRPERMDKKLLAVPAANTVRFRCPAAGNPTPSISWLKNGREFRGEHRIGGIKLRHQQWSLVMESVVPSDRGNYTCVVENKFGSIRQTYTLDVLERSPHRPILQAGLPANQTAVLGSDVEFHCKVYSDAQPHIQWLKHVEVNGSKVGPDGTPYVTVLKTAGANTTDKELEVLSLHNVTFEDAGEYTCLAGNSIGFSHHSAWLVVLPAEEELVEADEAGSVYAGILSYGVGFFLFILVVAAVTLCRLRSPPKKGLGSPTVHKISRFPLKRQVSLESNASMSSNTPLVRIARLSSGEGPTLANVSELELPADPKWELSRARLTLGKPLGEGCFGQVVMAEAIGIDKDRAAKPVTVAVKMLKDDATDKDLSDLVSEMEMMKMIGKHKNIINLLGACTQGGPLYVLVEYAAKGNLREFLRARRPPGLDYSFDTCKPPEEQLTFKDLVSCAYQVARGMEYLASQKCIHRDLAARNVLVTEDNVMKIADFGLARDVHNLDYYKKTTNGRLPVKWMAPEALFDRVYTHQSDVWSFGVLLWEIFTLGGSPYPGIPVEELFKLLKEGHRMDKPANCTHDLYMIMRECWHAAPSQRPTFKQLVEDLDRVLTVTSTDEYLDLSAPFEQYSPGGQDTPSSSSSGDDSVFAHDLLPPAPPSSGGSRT
T2 sequence (Q13464 whole entry): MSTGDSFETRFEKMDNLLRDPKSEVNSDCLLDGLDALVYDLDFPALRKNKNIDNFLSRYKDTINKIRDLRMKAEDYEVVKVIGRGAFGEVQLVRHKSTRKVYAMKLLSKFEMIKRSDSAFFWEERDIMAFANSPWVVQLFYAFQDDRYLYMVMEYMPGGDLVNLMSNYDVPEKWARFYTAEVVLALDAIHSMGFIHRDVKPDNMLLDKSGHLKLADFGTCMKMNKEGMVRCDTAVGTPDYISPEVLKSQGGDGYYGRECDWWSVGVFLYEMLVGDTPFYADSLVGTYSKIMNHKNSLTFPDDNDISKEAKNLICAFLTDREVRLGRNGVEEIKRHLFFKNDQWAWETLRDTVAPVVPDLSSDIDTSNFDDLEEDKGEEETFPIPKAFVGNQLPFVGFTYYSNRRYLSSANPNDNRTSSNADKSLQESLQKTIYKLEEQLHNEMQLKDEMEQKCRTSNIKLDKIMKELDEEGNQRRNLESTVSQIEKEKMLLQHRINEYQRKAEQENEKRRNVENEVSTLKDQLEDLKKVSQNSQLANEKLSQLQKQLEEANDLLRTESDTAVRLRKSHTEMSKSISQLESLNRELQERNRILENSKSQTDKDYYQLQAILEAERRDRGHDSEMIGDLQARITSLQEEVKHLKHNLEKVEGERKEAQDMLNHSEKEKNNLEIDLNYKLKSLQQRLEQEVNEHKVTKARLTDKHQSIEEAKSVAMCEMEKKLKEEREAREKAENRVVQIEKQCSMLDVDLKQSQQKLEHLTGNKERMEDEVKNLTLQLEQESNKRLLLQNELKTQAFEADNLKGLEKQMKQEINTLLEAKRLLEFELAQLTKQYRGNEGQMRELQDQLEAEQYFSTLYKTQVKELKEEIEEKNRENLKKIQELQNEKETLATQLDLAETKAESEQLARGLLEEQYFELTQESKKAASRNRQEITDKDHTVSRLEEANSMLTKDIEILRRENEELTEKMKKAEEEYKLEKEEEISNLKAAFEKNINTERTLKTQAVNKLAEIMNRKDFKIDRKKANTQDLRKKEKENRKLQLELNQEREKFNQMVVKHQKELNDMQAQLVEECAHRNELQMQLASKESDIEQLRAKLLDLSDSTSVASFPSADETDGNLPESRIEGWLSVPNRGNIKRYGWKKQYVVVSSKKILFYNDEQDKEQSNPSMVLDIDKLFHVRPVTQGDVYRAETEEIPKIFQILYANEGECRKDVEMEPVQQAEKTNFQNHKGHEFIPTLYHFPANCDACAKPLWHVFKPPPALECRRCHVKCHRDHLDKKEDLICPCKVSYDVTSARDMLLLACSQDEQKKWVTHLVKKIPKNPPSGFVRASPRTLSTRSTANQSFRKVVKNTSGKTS
T4 sequence (P17948 27-1338): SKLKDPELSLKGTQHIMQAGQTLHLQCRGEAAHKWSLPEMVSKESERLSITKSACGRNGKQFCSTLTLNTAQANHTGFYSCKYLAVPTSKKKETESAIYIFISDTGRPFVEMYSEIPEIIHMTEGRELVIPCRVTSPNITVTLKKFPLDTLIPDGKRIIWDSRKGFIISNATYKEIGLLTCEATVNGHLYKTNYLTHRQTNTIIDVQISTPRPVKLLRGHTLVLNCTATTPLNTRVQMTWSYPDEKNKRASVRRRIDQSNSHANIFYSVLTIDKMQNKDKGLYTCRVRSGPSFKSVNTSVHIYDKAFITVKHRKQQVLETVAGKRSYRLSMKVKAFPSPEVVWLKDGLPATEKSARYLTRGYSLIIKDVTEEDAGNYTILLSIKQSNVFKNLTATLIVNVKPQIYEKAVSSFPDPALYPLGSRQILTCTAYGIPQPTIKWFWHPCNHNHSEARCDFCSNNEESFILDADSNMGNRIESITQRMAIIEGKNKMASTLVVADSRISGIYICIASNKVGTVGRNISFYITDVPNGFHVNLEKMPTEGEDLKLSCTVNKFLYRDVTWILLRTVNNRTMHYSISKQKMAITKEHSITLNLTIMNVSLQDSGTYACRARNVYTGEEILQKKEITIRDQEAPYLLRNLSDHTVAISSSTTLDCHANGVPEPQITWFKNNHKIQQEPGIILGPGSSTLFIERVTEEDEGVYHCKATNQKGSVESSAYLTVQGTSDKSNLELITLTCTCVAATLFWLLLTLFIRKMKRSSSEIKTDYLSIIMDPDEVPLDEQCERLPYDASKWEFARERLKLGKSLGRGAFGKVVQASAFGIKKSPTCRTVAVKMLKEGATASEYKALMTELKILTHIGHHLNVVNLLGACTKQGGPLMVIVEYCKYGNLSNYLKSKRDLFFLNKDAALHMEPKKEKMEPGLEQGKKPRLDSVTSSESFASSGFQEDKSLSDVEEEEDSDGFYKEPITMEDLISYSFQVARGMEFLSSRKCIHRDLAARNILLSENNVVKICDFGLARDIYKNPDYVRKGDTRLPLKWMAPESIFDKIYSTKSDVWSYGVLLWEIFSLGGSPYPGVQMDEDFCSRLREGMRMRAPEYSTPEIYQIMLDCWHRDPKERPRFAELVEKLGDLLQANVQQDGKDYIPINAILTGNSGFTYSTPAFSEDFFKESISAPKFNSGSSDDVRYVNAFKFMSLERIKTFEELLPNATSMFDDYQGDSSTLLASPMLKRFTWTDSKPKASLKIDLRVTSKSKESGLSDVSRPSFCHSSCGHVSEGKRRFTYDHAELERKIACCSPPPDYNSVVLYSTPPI
Chain of PKCζ (Q05513 whole entry): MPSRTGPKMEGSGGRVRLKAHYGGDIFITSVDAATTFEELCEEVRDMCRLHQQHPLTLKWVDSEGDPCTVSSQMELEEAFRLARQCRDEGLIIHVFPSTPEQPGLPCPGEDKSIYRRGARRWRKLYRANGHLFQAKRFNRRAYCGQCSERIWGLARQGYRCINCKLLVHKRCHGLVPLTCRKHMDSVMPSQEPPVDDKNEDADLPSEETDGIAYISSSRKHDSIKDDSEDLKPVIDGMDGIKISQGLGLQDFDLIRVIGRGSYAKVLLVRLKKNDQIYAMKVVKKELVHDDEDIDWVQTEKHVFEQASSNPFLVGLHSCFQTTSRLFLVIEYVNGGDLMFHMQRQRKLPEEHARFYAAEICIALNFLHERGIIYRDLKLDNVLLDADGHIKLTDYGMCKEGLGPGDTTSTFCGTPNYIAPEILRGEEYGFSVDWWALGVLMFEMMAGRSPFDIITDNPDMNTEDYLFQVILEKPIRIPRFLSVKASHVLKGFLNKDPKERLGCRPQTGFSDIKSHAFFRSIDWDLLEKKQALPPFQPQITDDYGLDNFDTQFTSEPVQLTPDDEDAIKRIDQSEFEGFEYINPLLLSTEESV

## Cn1ncc(Cl)c1-c1cc(C(=O)N[C@H](CN)Cc2cccc(F)c2)sc1Cl [GSK2110183]
GCK(h)
  inhibition at 0.5 µM: -1%
  inhibition at 10 µM: 10%
ROCK-I(h)
  inhibition at 0.5 µM: 12%
  inhibition at 10 µM: 77%
PKCζ
  IC50: > 1000 nM
ASK1(h)
  inhibition at 0.5 µM: -2%
  inhibition at 10 µM: 3%
Flt1(h)
  inhibition at 0.5 µM: -35%
  inhibition at 10 µM: -28%
FGFR3(h)
  inhibition at 0.5 µM: -6%
  inhibition at 10 µM: 9%
MKK6(h)
  inhibition at 0.5 µM: 6%
  inhibition at 10 µM: 36%
PKCα(h)
  inhibition at 0.5 µM: 2%
  inhibition at 10 µM: 40%
Abl(h)
  inhibition at 0.5 µM: 8%
  inhibition at 10 µM: 4%

## Cn1ncc(Cl)c1-c1cc(C(=O)N[C@H](CN)Cc2ccc(F)c(F)c2)oc1Cl [GSK2141795]
GCK(h); 0.5 µM, read-out: % Inhibition
  inhibition at 0.5 µM: -13%
GCK(h); 10 µM, read-out: % Inhibition
  inhibition at 10 µM: 7%
ROCK-I(h); 0.5 µM, read-out: % Inhibition
  inhibition at 0.5 µM: 18%
ROCK-I(h); 10 µM, read-out: % Inhibition
  inhibition at 10 µM: 71%
PKCζ
  IC50: > 1000 nM
ASK1(h); 0.5 µM, read-out: % Inhibition
  inhibition at 0.5 µM: -21%
ASK1(h); 10 µM, read-out: % Inhibition
  inhibition at 10 µM: -14%
Flt1(h); 0.5 µM, read-out: % Inhibition
  inhibition at 0.5 µM: -4%
Flt1(h); 10 µM, read-out: % Inhibition
  inhibition at 10 µM: 21%
FGFR3(h); 0.5 µM, read-out: % Inhibition
  inhibition at 0.5 µM: -14%
FGFR3(h); 10 µM, read-out: % Inhibition
  inhibition at 10 µM: 2%
MKK6(h); 0.5 µM, read-out: % Inhibition
  inhibition at 0.5 µM: 14%
MKK6(h); 10 µM, read-out: % Inhibition
  inhibition at 10 µM: 66%
PKCα(h); 0.5 µM, read-out: % Inhibition
  inhibition at 0.5 µM: 10%
PKCα(h); 10 µM, read-out: % Inhibition
  inhibition at 10 µM: 62%
Abl(h); 0.5 µM, read-out: % Inhibition
  inhibition at 0.5 µM: 12%
Abl(h); 10 µM, read-out: % Inhibition
  inhibition at 10 µM: 13%
